Results: PubChem BioAssay AID2060902 (Molecular Pharmacology Branch, DTP, NCI, 2025)

Tested on: 485368-065-R3-J5-PDC spheroids with HUVEC/MSC, viability
Experiment: Anticancer human tumor 485368-065-R3-J5-PDC patient-derived pancreatic carcinoma cell line growth inhibition [RAS]
Details: for IC50: curve of first compound; for viability, T/C: stronger effect = lower value
Source text: RAS pathway inhibitors in Combinations in Complex Spheroids
A high-throughput screen of multi-cell type tumor spheroids was designed to identify active combinations of RAS pathway inhibitors and targeted small molecules. Complex spheroids include a stromal component modeled by human endothelial cells (HUVEC) and fibroblasts modeled by human mesenchymal stem cells (MSCs). The concentration ranges selected for each drug and investigational agent were based upon clinically achievable concentrations if the clinical Cmax of the agent was known.
Compounds. The drugs and investigational agents: abemaciclib (NSC768073), cobimetinib (NSC768068), divarasib (GDC6063, NSC841802), docetaxel (NSC628503), GDC-1971 (RLY-1971, NSC841576), gemcitabine (NSC613327), inavolisib (NSC800729), ipatasertib (NSC767898), KB-0742 (NSC834161), MRTX-1133 (NSC836407), osimertinib (NSC779217), RMC-4630 (NSC839698), RMC-6236 (NSC851965), RMC-6291 (NSC852671), Ro-3306 (NSC812927), sapanisertib (NSC764658), SN-38 (NSC673596), staurosporine (NSC755774), SY5609 (NSC837396), and tovorafenib (DAY101, NSC766906), were obtained from the National Cancer Institute (NCI) Developmental Therapeutics Program Chemical Repository. The FDA-approved anticancer drug set is available from the NCI Developmental Therapeutics Program. […] The stock solutions were prepared in dimethyl sulfoxide (DMSO, Sigma-Aldrich, St. Louis, MO, cat. D2650) at 800-fold the tested concentration and stored at -70 degrees C prior to their use. All drugs and investigational agents were tested over a range starting from a high concentration at or near the clinical Cmax and decreasing in half-log increments. If the clinical Cmax for an agent had not been determined, the highest concentration tested was 10 microM.
Cell Culture. All cells were maintained in an incubator at 37 degrees C and 5% CO2 with 95% humidity. The PDC lines were cultured according to standard operating procedures established by the NCI PDMR. All PDCs were thawed and cultured in Matrigel-coated flasks prepared with a working solution of 1X Ham's F-12 nutrient mix, without supplementation (Invitrogen, Waltham, MA, cat. 11765054), 100 U/mL penicillin-streptomycin (Invitrogen, cat. 15140122), and 2.5% Matrigel (Corning Inc., Corning, NY, cat. 354248) for the first three passages. The 362531-283-R-J2-PDC and 782815-120-R-J1-PDC lines were cultured in 6C/Colon 1B media, which includes advanced DMEM/F-12 (Thermo Fisher Scientific, cat. 12634028), 10 mM HEPES (Thermo Fisher Scientific, cat. 15630080), 1X GlutaMAX supplement (Thermo Fisher Scientific, cat. 35050061), 0.1 mg/mL primocin (InvivoGen, San Diego, CA, cat. ant-pm-2), 10% defined fetal bovine serum, heat inactivated (HyClone Laboratories Inc., Logan, UT, cat. SH30070.03HI), 50% L-WRN conditioned media (ATCC, cat. CRL-3276), 1.25 mM N-Acetyl-L-cysteine (Sigma-Aldrich, cat. A9165), 10 mM nicotinamide (Sigma-Aldrich, cat. N0636), 1X B-27 supplement (Thermo Fisher Scientific, cat. 17504044), 1X N-2 supplement (Thermo Fisher Scientific, cat. 17502048), 50 ng/mL human EGF (Thermo Fisher Scientific, cat. PHG0311), and 10 microM Y-27632 dihydrochloride (Tocris Bioscience, cat. 1254). The K12877-001-R-J1-PDC line was cultured in 6I media, which includes all 6C/Colon 1B media plus 10 ng/mL human FGF-10 (PeproTech, cat. 100-26), 1 ng/mL human FGF-2 (PeproTech, cat. 100-18B), 1 µM prostaglandin E2 (Tocris Bioscience, cat. 2296), […] hydrocortisone (Sigma-Aldrich, cat. H4001), and […] bovine insulin (Sigma-Aldrich, cat. I6634). The K86415-001-R-J1-PDC line was cultured in 6D media, which includes all 6C/Colon 1B media components minus the L-WRN conditioned media. The 485176-168-R4-J1-PDC was cultured in PANC media, which includes all 6C/Colon 1B media plus 100 ng/mL human FGF-10 (PeproTech, cat. 100-26), 500 nM SB-431542 (Selleckchem, cat. S1067), and 10 nM gastrin (Tocris Bioscience, cat. 3006). […]
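Also: spheroids exposed to agents for seven days before readout.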

## CC(Nc1ccc2c(c1)OCCn1cc(N3C(=O)OCC3C(F)F)nc1-2)C(N)=O (configuration not stated) + CCn1c(-c2cc(N3CCN(C)CC3)cnc2C(C)OC)c2c3cc(ccc31)-c1csc(n1)CC(NC(=O)C1CC1C)C(=O)N1CCCC(N1)C(=O)OCC(C)(C)C2
Second compound 0.000949 µM
  IC50: < 31.6 nM
Second compound 0.003 µM
  IC50: < 31.6 nM
Second compound 0.00949 µM
  IC50: < 31.6 nM
Second compound 0.03 µM
  IC50: < 31.6 nM
Second compound 0.0949 µM
  IC50: < 31.6 nM
Second compound 0.3 µM
  IC50: < 31.6 nM
Second compound 0.000949 µM, first compound 0.0316 µM
  viability, T/C: 26.2%
Second compound 0.000949 µM, first compound 0.1 µM
  viability, T/C: 23.7%
Second compound 0.000949 µM, first compound 0.316 µM
  viability, T/C: 24.2%
Second compound 0.000949 µM, first compound 1 µM
  viability, T/C: 18.2%
Second compound 0.000949 µM, first compound 3.16 µM
  viability, T/C: 17.5%
Second compound 0.000949 µM, first compound 10 µM
  viability, T/C: 11.3%
Second compound 0.003 µM, first compound 0.0316 µM
  viability, T/C: 15%
Second compound 0.003 µM, first compound 0.1 µM
  viability, T/C: 13.3%
Second compound 0.003 µM, first compound 0.316 µM
  viability, T/C: 12.6%
Second compound 0.003 µM, first compound 1 µM
  viability, T/C: 11.2%
Second compound 0.003 µM, first compound 3.16 µM
  viability, T/C: 10.1%
Second compound 0.003 µM, first compound 10 µM
  viability, T/C: 7.35%
Second compound 0.00949 µM, first compound 0.0316 µM
  viability, T/C: 10.8%
Second compound 0.00949 µM, first compound 0.1 µM
  viability, T/C: 11.4%
Second compound 0.00949 µM, first compound 0.316 µM
  viability, T/C: 9.57%
Second compound 0.00949 µM, first compound 1 µM
  viability, T/C: 9.69%
Second compound 0.00949 µM, first compound 3.16 µM
  viability, T/C: 9.37%
Second compound 0.00949 µM, first compound 10 µM
  viability, T/C: 6.07%
Second compound 0.03 µM, first compound 0.0316 µM
  viability, T/C: 10.3%
Second compound 0.03 µM, first compound 0.1 µM
  viability, T/C: 9.36%
Second compound 0.03 µM, first compound 0.316 µM
  viability, T/C: 8.76%
Second compound 0.03 µM, first compound 1 µM
  viability, T/C: 8.73%
Second compound 0.03 µM, first compound 3.16 µM
  viability, T/C: 7.08%
Second compound 0.03 µM, first compound 10 µM
  viability, T/C: 4.24%
Second compound 0.0949 µM, first compound 0.0316 µM
  viability, T/C: 7.86%
Second compound 0.0949 µM, first compound 0.1 µM
  viability, T/C: 6.77%
Second compound 0.0949 µM, first compound 0.316 µM
  viability, T/C: 7.07%
Second compound 0.0949 µM, first compound 1 µM
  viability, T/C: 5.28%
Second compound 0.0949 µM, first compound 3.16 µM
  viability, T/C: 4.78%
Second compound 0.0949 µM, first compound 10 µM
  viability, T/C: 2.97%
Second compound 0.3 µM, first compound 0.0316 µM
  viability, T/C: 6.57%
Second compound 0.3 µM, first compound 0.1 µM
  viability, T/C: 6.98%
Second compound 0.3 µM, first compound 0.316 µM
  viability, T/C: 5.66%
Second compound 0.3 µM, first compound 1 µM
  viability, T/C: 4.05%
Second compound 0.3 µM, first compound 3.16 µM
  viability, T/C: 4.16%
Second compound 0.3 µM, first compound 10 µM
  viability, T/C: 2.04%
